Test results from patent publication US9359322B2, “C-linked glucuronide of N-(4-hydroxybenzyl) retinone, analogs thereof, and methods of using the same to inhibit neoplastic cell growth” (Wisconsin Alumni Research Foundation, priority 2005, dated 2016).
Marks after values point to notes of the source that are not given here.

Experiments:
[1] = test system: DMBA-induced rat mammary tumor; test: DMBA-induced rat mammary tumor model, retinoid-containing diets; assay type: in vivo
Protocol: Preliminary evaluation of the mammary tumor chemotherapeutic activity of 4-HBRCG (7) was conducted, and its toxicity profile was also assessed. As previously described,^7, 12 tumor-bearing female rats (treated ca. 50 days earlier with 7,12-dimethylbenz(a)anthracene [DMBA]) were fed the control or retinoid-containing diets (RA (2), 4-HPR (3) or 4-HBRCG (7)) at 2 mmole/kg diet for 22 days.
(§1) Animal Studies: Mammary tumors were induced by intragastric intubation of 50-day old female Sprague-Dawley rats (Harlan Industries, Indianapolis, Ind.) with a single dose of 15 mg DMBA in 1.0 ml of sesame oil per rat. The rats were then maintained on a powdered Teklad 22/5 rodent chow diet (W) 8640 (Harlan Industries, Indianapolis, Ind.), and allowed food and water ad libitum. Four months later, rats which had developed palpable tumors were randomly assigned to the experimental groups (4 rats/group). The retinoid-treated groups were fed diets supplemented with 2 mmol/kg diet of atRA, 4-HPR, or 4-HBRCG, respectively. The retinoids were added to the diet in a vehicle consisting of 25 ml of ethanol: tricaprylin (1:4 v/v) plus 2% (w/v) of α-tocopherol as previously described.^9 This vehicle was also added to the control diet. The additives were blended into the chow diets using a Hobart food mixer. The diets were fed in stainless steel feeders designed with food hoppers. The food was replaced weekly with freshly prepared diets. Food consumption was determined once weekly, and from that the average daily consumption/rat was estimated. These diets were continuously fed for 22 days. Animals were also weighted weekly and monitored for general health status and signs of possible toxicity due to treatment.
(§2) Baseline measurement of initial tumor sizes, numbers and rat body weights were determined immediately before commencement of treatments, and final measurements were recorded just prior to sacrifice of the animals. Animals were palpated for tumors twice weekly and tumor diameters were measured weekly by a micrometer caliper. Tumor volumes were calculated using the formula [V= 4/3 πr^3] where r is one-half the mean of the sum of the largest diameter and the axis at right angle to it. All tumors as well as lungs, liver, kidney and femur were excised at the end of the experiment for chemical and histopathological evaluation. Blood samples were also taken from each animal for determination of plasma retinol and triglyceride levels.

[2] = Body weight change during retinoid feeding; assay type: in vivo, rat; details: relative to baseline body weight over 22 days; 2 mmol/kg diet
Protocol: as §1, §2

[3] = Plasma retinol level (HPLC); assay type: in vivo, rat; details: 2 mmol/kg diet
Protocol: as §2
Plasma Retinoid Assay. To 500 μL of plasma was added 150 μL of ethanol containing 0.75 μg of internal standard (N-(4-chlorophenyl) retinamide). After mixing 30 sec., 500 μL of ethyl acetate was added followed by 1 min. of mixing and centrifugation for 5 minutes at 1000 rpm in an IEC CL centrifuge. The ethyl acetate layer was removed and syringe filtered through a 0.45 um filter. The ethyl acetate extraction was repeated two more times. The combined extracts were evaporated and the residue reconstituted in 100 μL of methanol. The methanol extract (20 μL) was analyzed by HPLC on a Beckman Instruments model 127 instrument equipped with a model 166 UV detector. Chromatography was done on a precolumn equipped 250×4.6 mm Bechman Ultrasphere ODS column with an 85% methanol/water mobile phase (both containing 10 mM ammonium acetate) flowing at 1 mL/min. Analysis for both internal standard and retinol was conducted at 350 nm and internal standard recoveries and retinol levels were determined by comparison with standard curves, with adjustment of the retinol level based on recovery. Recoveries of internal standard averaged ca. 78%. […] In the 4-HPR treated group, plasma levels of this retinoid were evaluated simultaneously in the same samples as above. In order to avoid interfering substances, plasma treatment retinoid levels for RA and 4-HBRCG were measured using the above system and a step gradient of 75% methanol for 15 min. followed by 85% methanol for 40 minutes.

[4] = Femur bone mineral content; assay type: in vivo, rat; details: end of feeding study; FIG. 2B
Source text: Bone Mineral Content. The femur was disarticulated from the leg, and the adhering soft tissue was removed by dissection. Femurs were scanned using the Lunar PIXImus 2 system (Model X2608, General Electric using the LUNAR software version 1.45), and control measurements were made using the small animal quality control phantom. Femurs were scanned 5 times each with re-positioning at each measure. The average value of the bone mineral content (BMC) in grams for each animal is reported as one independent measure.

RXRγ = target: T1, RXRγ (Homo sapiens, UniProt P48443); test: Nuclear retinoid receptor binding assay, competition with [3H]9-cis RA; details: 4-HBRCG up to 10^−4.5 M; data not shown
T1 sequence (P48443 1-463): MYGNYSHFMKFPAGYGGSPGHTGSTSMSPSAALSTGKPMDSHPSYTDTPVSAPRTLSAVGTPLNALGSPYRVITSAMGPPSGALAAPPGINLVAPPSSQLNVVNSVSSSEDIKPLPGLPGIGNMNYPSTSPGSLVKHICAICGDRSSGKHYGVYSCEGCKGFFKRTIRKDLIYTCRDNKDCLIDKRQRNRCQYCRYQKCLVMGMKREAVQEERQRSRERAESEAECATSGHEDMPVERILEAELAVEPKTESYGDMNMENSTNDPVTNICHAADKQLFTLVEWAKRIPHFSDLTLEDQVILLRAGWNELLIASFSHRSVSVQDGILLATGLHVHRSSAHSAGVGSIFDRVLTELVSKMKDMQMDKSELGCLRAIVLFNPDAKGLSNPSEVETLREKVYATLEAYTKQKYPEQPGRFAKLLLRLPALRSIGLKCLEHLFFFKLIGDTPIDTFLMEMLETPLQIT
Protocol: Nuclear Retinoid Receptor Binding Assay. Competition of 3 and 7 and 4-HBRCGlucose with [^3H]-all-trans-RA (4.2-4.6 nM) for binding to RARβ and RARγ and with [^3H]-9-cis RA (1.9 nM) for binding to RXRγ was determined using an in vitro ligand binding assay.^41, 42 [^3H]-all-trans-RA (40.5 Ci/mmole) or [^3H]-9-cis-RA (69.4 Ci/mmole) was added to receptor-containing extracts in the absence and presence of increasing concentrations of competing ligands at 4° C. for 3 hr. A hydroxylapatite (HAP) assay was used to separate ligand bound to receptor from that free in solution, and the radioactivity associated with the HAP pellet was measured by scintillation counting.

CYP26A1 mRNA = test: Induction of CYP26A1 mRNA in liver (Q-PCR); assay type: in vivo, rat; details: at sacrifice, retinoid-fed rats, 2 mmol/kg diet; FIG. 4
[5] = number of individual tumors, 2 mmol/kg diet, 22 days

Plasma retinol ([3]; day 22 of treatment, mean ± SEM): 0.40 ± 0.04 µg/mL | Effect on femur bone mineral content vs control [4]: showed no such effect | Competition for [3H]9-cis RA binding to RXR (RXRγ): almost no competition
SMILES: CC1=C(/C=C/C(C)=C/C=C/C(C)=C/C(=O)Cc2ccc(CC3OC(C(=O)O)C(O)C(O)C3O)cc2)C(C)(C)CCC1 [4-HBRCG (7), 2,6-Anhydro-7-deoxy-7-[4-(retinoylmethyl)-phenyl]-L-glycero-L-gulo-heptinoic acid]
% Change in tumor volume from baseline ([1]; 2 mmol/kg diet for 22 days): −33 ^d % | Final tumor volume ([1]; 2 mmol/kg diet for 22 days, mean ± SEM): 0.08 ± 0.05 cm^3 | Initial tumor volumes ([1]; baseline before treatment, mean ± SEM): 0.12 ± 0.06 cm^3 | Complete regression (tumors that totally disappeared) [1, 5]: 2 | No effect [1, 5]: 2 | Partial regression (tumors with 25-75% decrease in volume) [1, 5]: 6 | New tumors ([1]; number of tumors, 2 mmol/kg diet, 22 days): 0 | % Weight change [2]: +3% | Effect on blood retinol [3]: did not produce any significant reduction in blood retinol | Induction of CYP26A1 mRNA in liver (CYP26A1 mRNA): did not induce these cytochrome p450 mRNAs
